Data as given in US20220095619A1, “METHOD OF CONTROLLING WEEDS IN A CULTIVATION AREA OF DETERMINATE SOYBEAN” (SUMITOMO CHEMICAL COMPANY, LIMITED, priority 2019, published 2022).

Columns and labels:
[1] = system: palmer amaranth, waterhemp, kochia, common ragweed and marestail; assay: Example 2 pot test, spray on day of weed sowing, before soybean sowing: herbicidal effect on weeds; type: in vivo; details: 25 or 50 g per hectare; applied on day of weed sowing; 21 days after sowing soybeans
Description: (§1) The evaluation of the herbicidal effect and crop injury is classified into 0 to 100, where the numeral “0” indicates no or little difference in the state of germination or growth of weeds or soybean under test at the time of examination as comparison with untreated weeds or soybean, respectively and the numeral “100” indicates the complete death of weeds or soybean under test or the complete inhibition of their germination or growth of weeds or soybean under test.
(§2) A pot is filled with a soil, and then Palmer amaranth, waterhemp, kochia, common ragweed and marestail are sown thereto. On the same day, trifludimoxazin spray liquid (prepared by diluting trifludimoxazin formulation (an aqueous suspension concentrate containing 500 g/L of trifludimoxazin) with water) is uniformly applied onto the pot using a sprayer at the amount of 200 L per hectare so that the application rate of trifludimoxazin may be 25 or 50 g per hectare. On the next day, determinate soybean, indeterminate soybean, and semi-determinate soybean are sown. 21 days after sowing soybeans, herbicidal effects and injuries on various soybeans are investigated.

kochia = assay: Example 3 pot test, pre-emergence soil spray: herbicidal effect on kochia; type: in vivo, Kochia scoparia; details: 25 and 50 g per hectare, 18 days after treatment, 100 = complete death
Description: as §1
(§3) Four varieties of determinate soybean, four varieties of indeterminate soybean, Palmer amaranth, kochia and large crabgrass were sown to a pot filled with a soil. On the next day, a trifludimoxazin spray liquid. (prepared by diluting an emuslfiable concentrate of trifludimoxazin with water) was uniformly sprayed onto the pot at the amount of 200 L, per hectare so that the application rate of trifludimoxazin might be 25 and 50 g per hectare. 18 days after treatment, herbicidal effects on weeds and injury on soybeans were investigated. As a result, the herbicidal effect on each of the three weeds was 100.

[2] = system: Wild soybean/Indeterminate; assay: Example 3 pot test, pre-emergence soil spray: crop injury on wild soybean; type: in vivo, Glycine soja; details: 18 days after treatment
Description: as §1, §3

[3] = system: determinate soybean, indeterminate soybean, semi-determinate soybean; assay: Example 1 pot test, spray two days after sowing: injury on soybeans; type: in vivo, Glycine max; details: 25 or 50 g per hectare; applied two days after sowing; 21 days after the treatment
Description: as §1
as §2, with “the determinate soybean, indeterminate soybean, semi-determinate soybean, palmer” for “then Palmer”, “Two days later,” for “On the same day,”, “an” for “(an”, “hectare.” for “hectare. On the next day, determinate soybean, indeterminate soybean, and semi-determinate soybean are sown.”, “the treatment,” for “sowing soybeans,”

[4] = system: Fukunari/Determinate soybean; assay: Example 3 pot test, pre-emergence soil spray: crop injury on soybean variety Fukunari; type: in vivo, Glycine max; details: 18 days after treatment
Description: as §1, §3

[5] = system: Williams 82/Indeterminate soybean; assay: Example 3 pot test, pre-emergence soil spray: crop injury on soybean variety Williams 82; type: in vivo, Glycine max; details: 18 days after treatment
Description: as §1, §3

[6] = system: Tambaguro/Determinate soybean; assay: Example 3 pot test, pre-emergence soil spray: crop injury on soybean variety Tambaguro; type: in vivo, Glycine max; details: 18 days after treatment, 0 = no or little difference from untreated, 100 = complete death
Description: as §1, §3

Palmer amaranth = assay: Example 3 pot test, pre-emergence soil spray: herbicidal effect on Palmer amaranth; type: in vivo, Amaranthus palmeri; details: 25 and 50 g per hectare, 18 days after treatment, 100 = complete death
Description: as §1, §3

[7] = system: palmer amaranth, waterhemp, kochia, common ragweed and marestail; assay: Example 1 pot test, spray two days after sowing: herbicidal effect on weeds; type: in vivo; details: 25 or 50 g per hectare; applied two days after sowing; 21 days after the treatment
Description: as §1
as §2, with “the determinate soybean, indeterminate soybean, semi-determinate soybean, palmer” for “then Palmer”, “Two days later,” for “On the same day,”, “an” for “(an”, “hectare.” for “hectare. On the next day, determinate soybean, indeterminate soybean, and semi-determinate soybean are sown.”, “the treatment,” for “sowing soybeans,”

large crabgrass = assay: Example 3 pot test, pre-emergence soil spray: herbicidal effect on large crabgrass; type: in vivo, Digitaria sanguinalis; details: 25 and 50 g per hectare, 18 days after treatment, 100 = complete death
Description: as §1, §3

[8] = system: determinate soybean, indeterminate soybean, and semi-determinate soybean; assay: Example 2 pot test, spray one day before soybean sowing: injury on soybeans; type: in vivo, Glycine max; details: 25 or 50 g per hectare; applied one day before sowing soybeans; 21 days after sowing soybeans
Description: as §1, §2

[9] = system: Sachiyutaka/Determinate soybean; assay: Example 3 pot test, pre-emergence soil spray: crop injury on soybean variety Sachiyutaka; type: in vivo, Glycine max; details: 18 days after treatment
Description: as §1, §3

[10] = system: Kurosengoku/Indeterminate soybean; assay: Example 3 pot test, pre-emergence soil spray: crop injury on soybean variety Kurosengoku; type: in vivo, Glycine max; details: 18 days after treatment
Description: as §1, §3

[11] = system: Toyomusume/Determinate soybean; assay: Example 3 pot test, pre-emergence soil spray: crop injury on soybean variety Toyomusume; type: in vivo, Glycine max; details: 18 days after treatment
Description: as §1, §3

[12] = system: Harosoy/Indeterminate soybean; assay: Example 3 pot test, pre-emergence soil spray: crop injury on soybean variety Harosoy; type: in vivo, Glycine max; details: 18 days after treatment
Description: as §1, §3

## C#CCN1C(=O)C(F)(F)Oc2cc(F)c(-n3c(=O)n(C)c(=S)n(C)c3=O)cc21 [trifludimoxazin]
[1]
  herbicidal effects on weeds: High effects on all weeds
kochia
  herbicidal effect (0 to 100 scale): 100
[2]; 25 g/hectare
  injury on soybeans (0 to 100 scale): 100
[2]; 50 g/hectare
  injury on soybeans (0 to 100 scale): 100
[3]
  injuries on various soybeans (comparison of growth habits): injury on determinate soybean is less than those on indeterminate soybean and semi-determinate soybean
[4]; 25 g/hectare
  injury on soybeans (0 to 100 scale): 0
[4]; 50 g/hectare
  injury on soybeans (0 to 100 scale): 0
[5]; 25 g/hectare
  injury on soybeans (0 to 100 scale): 40
[5]; 50 g/hectare
  injury on soybeans (0 to 100 scale): 80
[6]; 25 g/hectare
  injury on soybeans (0 to 100 scale): 0
[6]; 50 g/hectare
  injury on soybeans (0 to 100 scale): 10
Palmer amaranth
  herbicidal effect (0 to 100 scale): 100
[7]
  herbicidal effects on weeds: High herbicidal effects on all weeds
Large crabgrass
  herbicidal effect (0 to 100 scale): 100
[8]
  injuries on various soybeans (comparison of growth habits): injury on determinate soybean is less than those on indeterminate soybean and semi-determinate soybean
[9]; 25 g/hectare
  injury on soybeans (0 to 100 scale): 0
[9]; 50 g/hectare
  injury on soybeans (0 to 100 scale): 0
[10]; 25 g/hectare
  injury on soybeans (0 to 100 scale): 30
[10]; 50 g/hectare
  injury on soybeans (0 to 100 scale): 60
[11]; 25 g/hectare
  injury on soybeans (0 to 100 scale): 0
[11]; 50 g/hectare
  injury on soybeans (0 to 100 scale): 5
[12]; 25 g/hectare
  injury on soybeans (0 to 100 scale): 30
[12]; 50 g/hectare
  injury on soybeans (0 to 100 scale): 50
